Molecular target: T1, Histone-lysine N-methyltransferase EHMT2 (Homo sapiens, UniProt Q96KQ7)
T1 sequence (Q96KQ7 whole entry): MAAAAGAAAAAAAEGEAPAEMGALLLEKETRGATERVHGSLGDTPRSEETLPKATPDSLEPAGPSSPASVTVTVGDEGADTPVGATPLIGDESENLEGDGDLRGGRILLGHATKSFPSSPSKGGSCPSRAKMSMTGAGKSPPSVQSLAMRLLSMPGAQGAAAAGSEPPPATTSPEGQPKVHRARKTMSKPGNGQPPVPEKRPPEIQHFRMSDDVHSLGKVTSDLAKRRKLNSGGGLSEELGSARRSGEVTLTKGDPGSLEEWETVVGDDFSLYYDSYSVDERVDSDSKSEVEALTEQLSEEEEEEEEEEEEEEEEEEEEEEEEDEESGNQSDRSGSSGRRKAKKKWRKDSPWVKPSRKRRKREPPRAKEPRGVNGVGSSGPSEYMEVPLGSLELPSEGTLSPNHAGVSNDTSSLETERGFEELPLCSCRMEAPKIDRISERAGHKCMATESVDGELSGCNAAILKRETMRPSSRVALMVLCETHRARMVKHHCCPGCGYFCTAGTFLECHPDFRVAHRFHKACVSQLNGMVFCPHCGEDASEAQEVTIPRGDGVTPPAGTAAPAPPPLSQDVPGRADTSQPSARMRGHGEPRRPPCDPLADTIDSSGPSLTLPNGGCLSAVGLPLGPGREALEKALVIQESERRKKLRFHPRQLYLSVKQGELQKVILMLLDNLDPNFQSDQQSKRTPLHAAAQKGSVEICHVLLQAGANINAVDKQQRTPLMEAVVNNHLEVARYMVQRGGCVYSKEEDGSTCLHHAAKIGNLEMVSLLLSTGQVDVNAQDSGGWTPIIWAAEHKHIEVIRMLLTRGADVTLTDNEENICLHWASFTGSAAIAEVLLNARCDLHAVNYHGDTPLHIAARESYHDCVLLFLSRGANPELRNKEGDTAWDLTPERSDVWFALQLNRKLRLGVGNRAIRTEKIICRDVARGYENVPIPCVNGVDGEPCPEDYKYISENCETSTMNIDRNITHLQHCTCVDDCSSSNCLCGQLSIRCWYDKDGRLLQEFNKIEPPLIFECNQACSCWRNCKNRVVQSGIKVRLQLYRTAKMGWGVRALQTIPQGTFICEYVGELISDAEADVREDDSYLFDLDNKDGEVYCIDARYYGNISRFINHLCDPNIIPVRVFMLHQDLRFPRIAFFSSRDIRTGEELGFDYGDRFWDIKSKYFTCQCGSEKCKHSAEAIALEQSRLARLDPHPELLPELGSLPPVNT
Assay: Enzymatic Activity Assay: For the assay, the following buffer was used to set up reactions: 50 mM Tris-HCl pH9, 50 mM NaCl, 0.01% Tween-20 and 1 mM DTT (added fresh prior to starting the reactions). The assay is set up by adding a final concentration of 0.15 nM G9a, 15 uM S-adenosyl-methionine and 100 nM biotinylated histone 3 peptide (1-21). The reaction is incubated at rt for 1 hour and subsequently quenched with the acceptor beads (anti-H3k9me2 AlphaLISA acceptor beads, Perkin Elmer #AL117) at a final concentration of 20 ug/mL. The acceptor beads are incubated for 1 hour. After 1 hour, the donor beads are added at a final concentration of 20 ug/mL (Alpha Streptavidin donor beads, PerkinElmer #6760002). Donor beads are incubated for 0.5 hours. Both donor and acceptor beads are resuspended in AlphaLISA 5X Epigenetics Buffer 1 Kit (PerkinElmer #AL008) prior to addition to the reaction. All manipulations and incubations with the donor and acceptor beads are done in subdued light. Signal is detected in an EnVision plate reader in Alpha mode.

IC50 [nM] | Compound
617 | COc1cc2nc3c(c(NC4CCN(C5CCOC5)CC4)c2cc1OC)CCC3 (centres undefined)
1740 | COc1cc2nc3c(c(NCC4CN(c5ccccc5F)C4)c2cc1OC)CCC3
≥ 10000 | COc1cc2nc3c(c(NC4CCN(C(C)C)CC4)c2cc1OC)CCCC3
53.7 | COc1cc2nc3c(c(NC4CC(C)(C)NC(C)(C)C4)c2cc1OC)CCC3

Source: ChEMBL document CHEMBL5729726, “Tricyclic compounds as histone methyltransferase inhibitors” (2023)
